Experimental findings from US8148373B2, “Compounds” (AstraZeneca AB, priority 2008, dated 2012) are described below.

In assay [1] the target is T1, Adrenergic β2 (H292 cells) (Homo sapiens, UniProt P07550).
T1 construct: endogenous in cells; host or cells: H292 cells
Kind of assay: Assay for Adrenergic β2 Mediated cAMP Production (concentration response, AlphaScreen cAMP detection). Type of assay: cell-based. As to conditions: for EC50: cAMP production, 60 minutes at room temperature, 300 μM rolipram, read-out: β2 pEC50 (converted); for β2 Intrinsic activity: fraction relative to the maximum activity determined for formoterol. The gist of the method:
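Intrinsic activity is relative to the per-experiment formoterol maximum, with pEC50 from a four-parameter logistic fit of cAMP levels quantified by AlphaScreen against standards. Cells (H292) got 300 μM rolipram for 10 min, then compound for 60 min at room temperature, 1% DMSO final.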
(Bead proximity is the source of the signal in Alpha formats.)

Assay [2] has as its target T2, human muscarinic acetylcholine M3 receptor (M3-ACh) (Homo sapiens, UniProt P20309).
T2 construct: expressed in transfected cells; host or cells: CHO-K1 (Chinese Hamster Ovary) cell membranes
Kind of assay: Muscarinic 3 Receptor Binding Assay ([3H]NMS competition, SPA). The following applies: [3H]NMS 0.1 nM, CHO-K1 cell membranes, 16 hours at room temperature; read-out: M3 pIC50 (converted). The gist of the method: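 Competition SPA binding of 0.1 nM [3H]NMS (quarter Kd) to membranes from CHO-K1 cells expressing human M3, in 20 mM HEPES pH 7.4, 5 mM MgCl2, 1% DMSO. Incubated 16 h at room temperature; non-specific binding with 1 µM atropine. pIC50 from 50% reduction of specific binding.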

T2 sequence (P20309 whole entry): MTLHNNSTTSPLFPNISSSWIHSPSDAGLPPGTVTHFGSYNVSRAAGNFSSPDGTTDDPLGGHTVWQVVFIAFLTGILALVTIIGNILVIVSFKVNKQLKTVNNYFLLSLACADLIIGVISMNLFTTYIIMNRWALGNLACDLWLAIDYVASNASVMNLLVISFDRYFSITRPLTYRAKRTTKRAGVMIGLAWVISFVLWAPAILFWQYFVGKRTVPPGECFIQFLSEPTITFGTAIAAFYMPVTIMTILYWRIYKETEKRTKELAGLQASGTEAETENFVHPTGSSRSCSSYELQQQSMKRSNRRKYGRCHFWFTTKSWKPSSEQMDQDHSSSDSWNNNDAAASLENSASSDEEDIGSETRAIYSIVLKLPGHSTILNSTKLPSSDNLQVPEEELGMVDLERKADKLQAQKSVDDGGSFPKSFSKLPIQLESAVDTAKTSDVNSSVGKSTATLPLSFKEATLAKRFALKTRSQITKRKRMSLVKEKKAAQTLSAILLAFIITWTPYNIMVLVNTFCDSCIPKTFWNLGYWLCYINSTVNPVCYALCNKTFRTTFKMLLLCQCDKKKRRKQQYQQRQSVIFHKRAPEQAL
T1 sequence (P07550 whole entry): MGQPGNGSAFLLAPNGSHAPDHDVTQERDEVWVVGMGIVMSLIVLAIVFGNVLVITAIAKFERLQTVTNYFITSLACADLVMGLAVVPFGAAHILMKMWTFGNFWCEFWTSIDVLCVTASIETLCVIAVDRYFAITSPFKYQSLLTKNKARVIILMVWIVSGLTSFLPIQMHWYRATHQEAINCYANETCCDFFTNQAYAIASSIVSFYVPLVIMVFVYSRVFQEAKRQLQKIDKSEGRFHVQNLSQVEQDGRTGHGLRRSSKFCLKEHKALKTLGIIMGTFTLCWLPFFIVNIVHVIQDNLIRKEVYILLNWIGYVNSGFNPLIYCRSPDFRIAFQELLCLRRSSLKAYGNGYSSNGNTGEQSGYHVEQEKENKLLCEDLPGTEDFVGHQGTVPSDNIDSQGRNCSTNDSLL

Consider `CC(C)c1nc(C(=O)N2CCOC3(CCN(Cc4cc(CCNC[C@H](O)c5ccc(O)c6[nH]c(=O)sc56)ccc4F)CC3)C2)cs1` [Example 40, (R)-7-(2-(4-Fluoro-3-((4-(2-isopropylthiazole-4-carbonyl)-1-oxa-4,9-diazaspiro[5.5]undecan-9-yl)methyl)phenethylamino)-1-hydroxyethyl)-4-hydroxybenzo[d]thiazol-2(3H)-one ditrifluoroacetate], for which, in assay [1], the EC50 is 12.6 nM and the “β2 Intrinsic activity” value was found to be 1.1. In addition, in assay [2], the IC50 is 0.398 nM.

`O=C(c1csc(-c2ccccc2)n1)N1CCOC2(CCN(Cc3cc(F)cc(CCNC[C@H](O)c4ccc(O)c5[nH]c(=O)sc45)c3)CC2)C1` [Example 41, (R)-7-(2-(3-Fluoro-5-((4-(2-phenylthiazole-4-carbonyl)-1-oxa-4,9-diazaspiro[5.5]undecan-9-yl)methyl)phenethylamino)-1-hydroxyethyl)-4-hydroxybenzo[d]thiazol-2(3H)-one ditrifluoroacetate]: in assay [1], the EC50 was 6.31 nM and the “β2 Intrinsic activity” value amounted to 1.1. In addition, in assay [2], the IC50 was 126 nM.

For the compound `CC(C)c1nc(C(=O)N2CCOC3(CCN(Cc4cc(F)cc(CCNC[C@H](O)c5ccc(O)c6[nH]c(=O)sc56)c4)CC3)C2)cs1` [Example 42, (R)-7-(2-(3-Fluoro-5-((4-(2-isopropylthiazole-4-carbonyl)-1-oxa-4,9-diazaspiro[5.5]undecan-9-yl)methyl)phenethylamino)-1-hydroxyethyl)-4-hydroxybenzo[d]thiazol-2(3H)-one ditrifluoroacetate], in assay [1], the EC50 is 7.94 nM and the “β2 Intrinsic activity” value is 1. Also, the IC50 in assay [2] was 0.631 nM.

With `CC(C)(C)c1nc(C(=O)N2CCOC3(CCN(Cc4cc(CCNC[C@H](O)c5ccc(O)c6[nH]c(=O)sc56)cs4)CC3)C2)cs1` [Example 43, (R)-7-(2-(2-(5-((4-(2-tert-Butylthiazole-4-carbonyl)-1-oxa-4,9-diazaspiro[5.5]undecan-9-yl)methyl)thiophen-3-yl)ethylamino)-1-hydroxyethyl)-4-hydroxybenzo[d]thiazol-2(3H)-one ditrifluoroacetate], in assay [1], the EC50 is 5.01 nM and the “β2 Intrinsic activity” value is 0.8. For the same compound, in assay [2], the IC50 was 39.8 nM.

As for `CC(C)c1nc(C(=O)N2CC(F)(F)OC3(CCN(Cc4cccc(CCNC[C@H](O)c5ccc(O)c6[nH]c(=O)ccc56)c4)CC3)C2)cs1` [Example 44, (R)-5-(2-(3-((2,2-Difluoro-4-(2-isopropylthiazole-4-carbonyl)-1-oxa-4,9-diazaspiro[5.5]undecan-9-yl)methyl)phenethylamino)-1-hydroxyethyl)-8-hydroxyquinolin-2(1H)-one ditrifluoroacetate], in assay [1], the EC50 is 2.51 nM and the “β2 Intrinsic activity” value was determined as 1. The IC50 in assay [2] is 3.16 nM.

`CC(C)c1nc(C(=O)N2CCOC3(CCN(Cc4ccc(F)c(CCNC[C@H](O)c5ccc(O)c6[nH]c(=O)sc56)c4F)CC3)C2)cs1` [Example 45, (R)-7-(2-(2,6-Difluoro-3-((4-(2-isopropylthiazole-4-carbonyl)-1-oxa-4,9-diazaspiro[5.5]undecan-9-yl)methyl)phenethylamino)-1-hydroxyethyl)-4-hydroxybenzo[d]thiazol-2(3H)-one ditrifluoroacetate]: in assay [1], the EC50 is 10 nM and the “β2 Intrinsic activity” value is reported as 0.8. The IC50 in assay [2] is 5.01 nM.

For the compound `CC(C)c1nc(C(=O)N2CCOC3(CCN(Cc4ccc(F)c(CCNC[C@H](O)c5ccc(O)c6[nH]c(=O)ccc56)c4F)CC3)C2)cs1` [Example 46, (R)-5-(2-(2,6-Difluoro-3-((4-(2-isopropylthiazole-4-carbonyl)-1-oxa-4,9-diazaspiro[5.5]undecan-9-yl)methyl)phenethylamino)-1-hydroxyethyl)-8-hydroxyquinolin-2(1H)-one ditrifluoroacetate], in assay [1], the EC50 is 79.4 nM and the “β2 Intrinsic activity” value came to 1. Further, the IC50 in assay [2] was 6.31 nM.

With `CC(C)c1nc(C(=O)N2CCOC3(CCN(Cc4ccc(F)c(CCNC[C@H](O)c5ccc(O)c6[nH]c(=O)sc56)c4)CC3)C2)cs1` [Example 47, (R)-7-(2-(2-Fluoro-5-((4-(2-isopropylthiazole-4-carbonyl)-1-oxa-4,9-diazaspiro[5.5]undecan-9-yl)methyl)phenethylamino)-1-hydroxyethyl)-4-hydroxybenzo[d]thiazol-2(3H)-one ditrifluoroacetate], in assay [1], the EC50 is 15.8 nM and the “β2 Intrinsic activity” value is recorded as 0.9. Besides, the IC50 in assay [2] is 0.501 nM.

In the case of `CC(C)c1nc(C(=O)N2CCOC3(CCN(Cc4cccc(CCNC[C@H](O)c5ccc(O)c6[nH]c(=O)sc56)c4F)CC3)C2)cs1` [Example 48, (R)-7-(2-(2-Fluoro-3-((4-(2-isopropylthiazole-4-carbonyl)-1-oxa-4,9-diazaspiro[5.5]undecan-9-yl)methyl)phenethylamino)-1-hydroxyethyl)-4-hydroxybenzo[d]thiazol-2(3H)-one ditrifluoroacetate], in assay [1], the EC50 was 5.01 nM and the “β2 Intrinsic activity” value is reported as 0.9. Also, in assay [2], the IC50 was 0.794 nM.

`Cc1nc2cc(C(=O)N3CCOC4(CCN(Cc5cc(CCNC[C@H](O)c6ccc(O)c7[nH]c(=O)sc67)cs5)CC4)C3)ccc2s1` [Example 49, (R)-4-Hydroxy-7-(1-hydroxy-2-(2-(5-((4-(2-methylbenzo[d]thiazole-5-carbonyl)-1-oxa-4,9-diazaspiro[5.5]undecan-9-yl)methyl)thiophen-3-yl)ethylamino)ethyl)benzo[d]thiazol-2(3H)-one ditrifluoroacetate]: in assay [1], the EC50 is 7.94 nM and the “β2 Intrinsic activity” value stood at 0.9. Moreover, the IC50 in assay [2] was 39.8 nM.

With `CC(C)(C)c1nc(C(=O)N2CCOC3(CCN(Cc4cc(F)cc(CCNC[C@H](O)c5ccc(O)c6[nH]c(=O)sc56)c4)CC3)C2)cs1` [Example 50, (R)-7-(2-(3-((4-(2-tert-Butylthiazole-4-carbonyl)-1-oxa-4,9-diazaspiro[5.5]undecan-9-yl)methyl)-5-fluorophenethylamino)-1-hydroxyethyl)-4-hydroxybenzo[d]thiazol-2(3H)-one ditrifluoroacetate], in assay [1], the EC50 was 7.94 nM and the “β2 Intrinsic activity” value amounted to 0.9. Further, in assay [2], the IC50 was 39.8 nM.

Regarding `CC(C)c1nc(C(=O)N2CC(F)(F)OC3(CCN(Cc4cc(CCNC[C@H](O)c5ccc(O)c6[nH]c(=O)ccc56)cs4)CC3)C2)cs1` [Example 51, (R)-5-(2-(2-(5-((2,2-Difluoro-4-(2-isopropylthiazole-4-carbonyl)-1-oxa-4,9-diazaspiro[5.5]undecan-9-yl)methyl)thiophen-3-yl)ethylamino)-1-hydroxyethyl)-8-hydroxyquinolin-2(1H)-one ditrifluoroacetate], in assay [1], the EC50 was 3.16 nM and the “β2 Intrinsic activity” value turned out to be 0.9. Further, in assay [2], the IC50 was 15.8 nM.

For the compound `CC(C)c1nc(C(=O)N2CCOC3(CCN(Cc4cc(Cl)cc(CCNC[C@H](O)c5ccc(O)c6[nH]c(=O)sc56)c4)CC3)C2)cs1` [Example 52, (R)-7-(2-(3-Chloro-5-((4-(2-isopropylthiazole-4-carbonyl)-1-oxa-4,9-diazaspiro[5.5]undecan-9-yl)methyl)phenethylamino)-1-hydroxyethyl)-4-hydroxybenzo[d]thiazol-2(3H)-one ditrifluoroacetate], in assay [1], the EC50 was 5.01 nM and the “β2 Intrinsic activity” value is reported as 0.9. The IC50 in assay [2] is 7.94 nM.

Turning to `CC(C)c1csc(C(=O)N2CCOC3(CCN(Cc4cc(F)cc(CCNC[C@H](O)c5ccc(O)c6[nH]c(=O)sc56)c4)CC3)C2)n1` [Example 53, (R)-7-(2-(3-Fluoro-5-((4-(4-isopropylthiazole-2-carbonyl)-1-oxa-4,9-diazaspiro[5.5]undecan-9-yl)methyl)phenethylamino)-1-hydroxyethyl)-4-hydroxybenzo[d]thiazol-2(3H)-one ditrifluoroacetate], in assay [1], the EC50 was 10 nM and the “β2 Intrinsic activity” value is recorded as 1. Moreover, in assay [2], the IC50 is 12.6 nM.

Take `CC(C)c1cnc(C(=O)N2CCOC3(CCN(Cc4cc(F)cc(CCNC[C@H](O)c5ccc(O)c6[nH]c(=O)sc56)c4)CC3)C2)s1` [Example 54, (R)-7-(2-(3-Fluoro-5-((4-(5-isopropylthiazole-2-carbonyl)-1-oxa-4,9-diazaspiro[5.5]undecan-9-yl)methyl)phenethylamino)-1-hydroxyethyl)-4-hydroxybenzo[d]thiazol-2(3H)-one ditrifluoroacetate]: in assay [1], the EC50 is 6.31 nM and the “β2 Intrinsic activity” value was 0.9. Moreover, the IC50 in assay [2] was 200 nM.

For `CC(C)c1ncc(C(=O)N2CCOC3(CCN(Cc4cc(F)cc(CCNC[C@H](O)c5ccc(O)c6[nH]c(=O)sc56)c4)CC3)C2)s1` [Example 55, (R)-7-(2-(3-Fluoro-5-((4-(2-isopropylthiazole-5-carbonyl)-1-oxa-4,9-diazaspiro[5.5]undecan-9-yl)methyl)phenethylamino)-1-hydroxyethyl)-4-hydroxybenzo[d]thiazol-2(3H)-one ditrifluoroacetate], in assay [1], the EC50 is 6.31 nM and the “β2 Intrinsic activity” value is on record as 1. In addition, in assay [2], the IC50 is 63.1 nM.
